{"source": "patent US20250368687A1", "about": "“SHORT SYNTHETIC PEPTIDES AND USES THEREOF IN THE TREATMENT OF ENTEROVIRUS INFECTION” (CITY UNIVERSITY OF HONG KONG, priority 2024, published 2025)", "key": {"[1]": {"test_system": "Hsp27 phosphorylation on Ser 15, 78, 82", "assay": "Western blot of Hsp27 phosphorylation in EV-A71-infected RD cells", "assay_type": "cell-based", "conditions": "for inhibition of Hsp27 Ser78 phosphorylation: peptide pre-treatment 2 hours", "protocol": "RD cells were treated with SB203580 at indicated concentration for 2 hours, then infected with EV-A71 at the MOI of 10 for 6 hours. Cell lysates were collected for western blot assay. Hsp27 phosphorylation on Ser 15, 78, 82 were detected by specific antibodies. GAPDH were detected as internal control.\nFIGS. 10A-10K. […] (FIG. 10A) RD cells were pre-treated with peptides S78 or for 2 hours and infected with EV-A71 at the MOI of 10 for 6 hours. Cell lysates were collected for western blot assay. Hsp27 phosphorylation on Ser 15, 78, 82 were detected by specific antibodies. β-Actin were detected as internal control. (FIG. 10B) Densitometric analysis of FIG. 9A. (FIG. 10C) HEK 293T cells were pre-treated with peptides S78 or S78A at the concentration of 25 μM for 2 hours and then co-transfected with Hsp27-WT plasmid (800 ng), pIRES reporter plasmid (200 ng) and 2A^pro-expressing plasmid or 2AC110A-expressing plasmid (200 ng) for 24 h, then the luciferase activity was measured. (FIG. 10D-10E) RD cells were treated with peptides S78 or S78A and then infected with EV-A71. EV-A71 VP1 were detected. (FIG. 10F) RD cells were treated with peptides and then infected with EV-A71 at the MOI of 1 for 12 hours. The EV-A71-induced CPE was captured. (FIG. 10G-10H) Intracellular viral RNA was extracted and quantified by qPCR. (FIG. 10I) Densitometric analysis FIG. 9D-E. (FIG. 10J) RD cells were treated with peptides S78 or and then infected with EV-A71 at the MOI of 1 for 12 hours. Extracellular viral RNA was extracted and quantified by qPCR. (FIG. 10K) Viral titration was calculated by TCID50. The Statistical analyses were carried out using Student's t-test. *: p<0.05, **: p<0.01, ***: p<0.001. Data are expressed as mean ±SD.\nAfter cell lysis in Nonidet-P40 (NP-40) buffer, the cell lysates were centrifuged, and the concentration was determined by Bradford assay (Bio-Rad). 20 μg of protein was used for 12% SDS-PAGE and transferred onto polyvinylidene fluoride membrane (PVDF) (GE, MA, USA). Following 5% bovine serum albumin (BSA) blocking for 1 hrs, the membrane was incubated with antibodies (1:1000) against Hsp27 (sc-13132), pHsp27-Ser15 (ab76313), pHsp27-Ser78 (ADI-SPA-523), pHsp27-Ser82 (ab155987), VP1 (GTX132339), β-Actin (sc-47778), hnRNP A1 (sc-32301), or GAPDH (sc-32233) overnight in 4° C. After secondary antibodies (HRP-conjugated Affinipure Goat Anti-Mouse IgG(H+L), SA00001-1, and HRP-conjugated Affinipure Goat Anti-Rabbit IgG(H+L), SA00001-2) incubation for 1 hrs, the protein was visualized with a chemiluminescence reagent (PerkinElmer, MA, USA) on Bio-Rad Chemidoc Imaging System. The protein bands were quantified by densitometry with ImageJ if necessary.\nIn this example, the effect of EV-A71 infection on Hsp27 phosphorylation was investigated. […] Then, the phosphorylation status of Hsp27 upon virus infection under the treatment with a p38 inhibitor was examined, as the phosphorylation of Hsp27 could be resulted from p38 signaling activation. To this purpose, the cells were first treated with p38 kinase inhibitor −SB203580 at different concentrations (0, 0.25, 0.5, 1, 2, 4, and 8 μM) and the phosphorylation level of Hsp27 upon EV-A71 infection was examined by western blot assay."}, "[2]": {"test_system": "Hsp27 and hnRNP A1 redistribution in RD cells", "assay": "Immunofluorescence colocalization assay of Hsp27/hnRNP A1 redistribution, RD cells with or without EV-A71 infection", "assay_type": "cell-based", "conditions": "for redistribution of Hsp27 and hnRNP A1 in EV-A71-infected RD cells / localization of Hsp27 and hnRNP A1 in mock RD cells: 25 μM for 2h; for redistribution of Hsp27 and hnRNP A1 in EV-A71-infected RD cells: EV-A71 MOI 40 for 6h; for localization of Hsp27 and hnRNP A1 in mock RD cells: without EV-A71; for fraction of Hsp27 overlapping DAPI (M1 colocalization coefficient): EV-A71-infected RD cells", "protocol": "The cells on coverslips were infected with EV-A71 at the multiplicity of infection (MOI) of 40 for 6 hrs to assure the high efficiency of viral infection. Then the cells were fixed by 4% paraformaldehyde for 20 min, permeabilized by 0.5% Triton X-100 for 15 min, blocked with 5% BSA for 2 hrs, and stained by incubation with anti-Hsp27 (GTX101145) and anti-hnRNP A1 (sc-32301) antibody, then with Alexa Fluor 488 conjugated anti-rabbit antibody and Alexa Fluor 594 conjugated anti-mouse antibody respectively. After washing four times with 0.2% Triton X-100, the nuclei were stained with DAPI or Hoechst for 5 min. The images were captured by a Nikon A1HD25 High speed and Large Field of View Confocal Microscope. Colocalization analysis was conducted using the JACoP-plugin of the extended ImageJ version Fiji. The M1 colocalization coefficient was computed to illustrate the colocalization levels of Hsp27 and hnRNP A1 overlapped with Hoechst.\nHsp27 is predominantly located in the cytoplasm, however, stress (e.g., heat shock, virus infection) can induce partial redistribution of Hsp27 from the cytoplasm to the nucleus, concomitantly with its phosphorylation. We thus postulated that the cellular redistribution of Hsp27 may be associated with its phosphorylation upon EV-A71 infection. To verify the hypothesis, RD cells were with SB203580 at 0, 2, 4, and 8 μM for 2 h, and the cells were infected with EV-A71 for 6 h. […] The colocalization of Hsp27 and DAPI, which stands for the level of redistribution of Hsp27, was also quantified. The colocalization coefficient M1 was computed as the fraction of Hsp27 colocalized with DAPI in the total Hsp27 area using the JACoP-plugin in FIJI.\nWe hypothesized that peptides S78 and S82A could interfere with Ser78 phosphorylation while peptides S78A (Ser78 replaced by Ala78) would not affect the phosphorylation of Ser78 of Hsp27. […] RD cells were pre-treated with peptide S78, S78A or S82A at the concentrations of 25 μM for 2h and then infected with or without EV-A71 at an MOI of 40 for 6h."}, "[3]": {"conditions": "EV-A71 MOI 10 for 6 hours, RD cells"}, "[4]": {"conditions": "SB203580 0-8 μM for 2 hours, EV-A71 MOI 10 for 6 hours, RD cells"}}}
{"compound": "Ac-RKKRRQRRRAYSRALARQLSS-NH2 [S78A]", "values": [{"measurement": "inhibition of Hsp27 Ser78 phosphorylation", "setting": "[1]; [3]", "value": "less inhibition"}, {"measurement": "redistribution of Hsp27 and hnRNP A1 in EV-A71-infected RD cells", "setting": "[2]", "value": "only partially reduced"}, {"measurement": "localization of Hsp27 and hnRNP A1 in mock RD cells", "setting": "[2]", "value": "not affected"}]}
{"compound": "Ac-RKKRRQRRRYSREANQPKPSPKRESGEE-NH2 [NC, reference compound]", "values": [{"measurement": "redistribution of Hsp27 and hnRNP A1 in EV-A71-infected RD cells", "setting": "[2]", "value": "did not affect"}]}
{"compound": "Ac-RKKRRQRRRAYSRALSRQLSS-NH2 [S78]", "values": [{"measurement": "inhibition of Hsp27 Ser78 phosphorylation", "setting": "[1]; [3]", "value": "dramatically inhibited"}, {"measurement": "redistribution of Hsp27 and hnRNP A1 in EV-A71-infected RD cells", "setting": "[2]", "value": "dramatically blocked"}, {"measurement": "localization of Hsp27 and hnRNP A1 in mock RD cells", "setting": "[2]", "value": "not affected"}]}
{"compound": "C[S+]([O-])c1ccc(-c2nc(-c3ccncc3)c(-c3ccc(F)cc3)[nH]2)cc1", "note": "(stereo not shown) [SB203580, reference compound]", "values": [{"measurement": "reduction of phosphorylation level at Ser78 (densitometry)", "setting": "[1]; 8 μM, EV-A71-infected RD cells", "value": "over 85%"}, {"measurement": "phosphorylation level of Hsp27 at Ser15", "setting": "[1]; [4]", "value": "slightly decreased"}, {"measurement": "phosphorylation level of Hsp27 at Ser82", "setting": "[1]; [4]", "value": "slightly decreased"}, {"measurement": "phosphorylation of Hsp27 at Ser78", "setting": "[1]; [4]", "value": "markedly suppressed in a dose-dependent manner"}, {"measurement": "fraction of Hsp27 overlapping DAPI (M1 colocalization coefficient)", "setting": "[2]; 0, 2, 4, 8 μM", "value": "reduced in a dose-dependent manner"}, {"measurement": "nuclear Hsp27 level upon EV-A71 infection", "setting": "[2]; 2 μM for 2 h, EV-A71 6 h, RD cells", "value": "markedly reduced"}, {"measurement": "nuclear relocation of Hsp27 upon EV-A71 infection", "setting": "[2]; 4 μM for 2 h, EV-A71 6 h, RD cells", "value": "further blocked to an invisible level"}, {"measurement": "fraction of Hsp27 overlapping DAPI (M1 colocalization coefficient)", "setting": "[2]; 8 μM", "value": "reduced to the basal level"}, {"measurement": "Hsp27 translocation to the nucleus without EV-A71 infection", "setting": "[2]; RD cells without EV-A71 infection", "value": "not translocated to the nucleus"}]}
